Experimental data from PMC12567141, “Design, Synthesis and Biological Evaluation of Pyrazolopyrimidine Derivatives as Aryl Hydrocarbon Receptor Antagonists for Colorectal Cancer Immunotherapy” (Pharmaceutics, 2025).
Several values for one entry are separate records, joined by “and”; a condition that tells them apart may be missing. Equal values may be shown once. Read-outs that look alike come from different tables or passages of the source.

Experiments:
[1] = target: T1, AhR (Danio rerio, UniProt Q9YGV3); parameters: method as in PMID 34223158, PMID 10913616, PMID 31358358; details: reported AhR antagonists, Figure 2; cited from earlier work
T1 sequence (Q9YGV3 1-1027): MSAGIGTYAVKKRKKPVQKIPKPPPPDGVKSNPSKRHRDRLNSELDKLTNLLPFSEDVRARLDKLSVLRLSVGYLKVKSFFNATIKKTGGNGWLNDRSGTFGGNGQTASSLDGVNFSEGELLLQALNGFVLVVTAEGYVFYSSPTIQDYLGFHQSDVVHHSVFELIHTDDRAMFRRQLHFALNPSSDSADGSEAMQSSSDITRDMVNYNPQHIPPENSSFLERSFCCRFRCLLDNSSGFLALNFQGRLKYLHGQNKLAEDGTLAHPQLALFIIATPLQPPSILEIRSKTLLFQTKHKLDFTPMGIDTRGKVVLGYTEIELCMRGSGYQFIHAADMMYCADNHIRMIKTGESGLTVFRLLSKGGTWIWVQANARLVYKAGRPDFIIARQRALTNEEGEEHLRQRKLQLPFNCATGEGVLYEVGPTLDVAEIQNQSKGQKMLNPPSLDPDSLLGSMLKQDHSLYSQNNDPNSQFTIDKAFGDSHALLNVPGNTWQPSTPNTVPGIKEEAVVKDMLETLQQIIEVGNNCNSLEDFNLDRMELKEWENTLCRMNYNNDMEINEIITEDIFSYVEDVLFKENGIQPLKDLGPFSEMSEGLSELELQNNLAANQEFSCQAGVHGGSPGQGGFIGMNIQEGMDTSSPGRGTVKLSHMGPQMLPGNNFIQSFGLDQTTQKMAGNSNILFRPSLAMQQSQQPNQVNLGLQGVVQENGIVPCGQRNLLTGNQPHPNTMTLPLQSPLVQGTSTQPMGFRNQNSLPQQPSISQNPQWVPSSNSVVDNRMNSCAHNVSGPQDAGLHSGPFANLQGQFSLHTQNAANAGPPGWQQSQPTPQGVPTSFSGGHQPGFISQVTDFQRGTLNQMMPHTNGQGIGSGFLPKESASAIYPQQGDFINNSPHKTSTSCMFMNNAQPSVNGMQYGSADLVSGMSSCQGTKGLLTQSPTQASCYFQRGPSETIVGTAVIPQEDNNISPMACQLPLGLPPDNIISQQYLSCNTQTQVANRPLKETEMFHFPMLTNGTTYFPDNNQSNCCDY
T1 sequence (Q64FF9 1-503 partner): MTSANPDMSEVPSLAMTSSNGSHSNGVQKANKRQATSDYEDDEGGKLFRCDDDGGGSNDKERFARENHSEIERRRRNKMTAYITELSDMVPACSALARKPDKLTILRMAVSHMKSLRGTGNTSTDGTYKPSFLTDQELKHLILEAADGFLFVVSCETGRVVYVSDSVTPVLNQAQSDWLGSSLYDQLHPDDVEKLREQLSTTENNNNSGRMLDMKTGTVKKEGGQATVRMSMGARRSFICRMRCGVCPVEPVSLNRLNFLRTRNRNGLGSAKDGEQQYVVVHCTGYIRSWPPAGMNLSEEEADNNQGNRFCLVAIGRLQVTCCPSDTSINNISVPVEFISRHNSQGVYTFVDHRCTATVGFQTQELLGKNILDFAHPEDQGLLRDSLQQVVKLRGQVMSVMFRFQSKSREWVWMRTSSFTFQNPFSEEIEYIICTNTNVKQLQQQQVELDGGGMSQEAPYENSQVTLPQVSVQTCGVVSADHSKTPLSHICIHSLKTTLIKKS

[2] = system: AhR; assay: AhR antagonist screening using Tg(cyp1a:egfp) zebrafish; format: in vivo; parameters: key to AhR Antagonist Activity at 100 nM: - no inhibition; + weak; ++ mild; +++ moderate; ++++ high; +++++ very high; details: for AhR antagonistic activity in zebrafish, in words: Tg(cyp1a:egfp) zebrafish, EGFP readout; for AhR Antagonist Activity at 100 nM: extent of GFP reduction in Tg(cyp1a:egfp) zebrafish compared to the TCDD (2 nM) control, 48 h
Method: At 30 hpf, Tg(cyp1a:egfp) embryos were placed in a 2-mL screw-capped glass vial with five embryos per vial. Each vial contained 1 mL of E3 media (5 mM NaCl, 0.17 mM KCl, 0.33 mM CaCl2·2H2O and 0.4 mM MgCl2·6H2O, pH 7.2) and supplemented with 2 nM TCDD (1746-01-6; AccuStandard Inc., New Haven, NH, USA) dissolved in DMSO. The compounds were subsequently diluted and individually introduced into the vials, achieving a final concentration of 0.1% DMSO. The embryos were then incubated for 48 h and then embryonic EGFP expression was evaluated using a fluorescent stereomicroscope (SteREO Discovery V8; Zeiss, Oberkochen, BW, Germany). As a positive control, StemRegenin1 (72342, […] Technologies, Vancouver, BC, Canada) was employed.
To evaluate AhR antagonistic activity, we conducted an AhR antagonist assay using transgenic zebrafish. Zebrafish have garnered significant attention as model organisms for drug discovery because they share metabolic pathways with mammals. […] Therefore, we synthesized more meta substituted phenyl derivatives. […] We also synthesized heteroaromatic derivatives including pyrimidine and pyridine at 5-position; however, their activities were decreased.

[3] = target: T1, AhR; assay: IC50 determination, Cyp1a dual luciferase reporter assay in transfected COS-7 cells; format: cell-based; details: AhR2/ARNT-1c/Cyp1a-luciferase, TCDD 10 nM
Method: All experiments were conducted as described previously unless stated otherwise. COS-7 cells were seeded onto 24-well plate until approximately 65% confluency. The cells were transfected with ARNT-1c expression plasmid (50 ng), AhR2 expression plasmid (5 ng), Cyp1a-firefly luciferase reporter plasmid (20 ng) and pRL-TK Renilla luciferase plasmid (2 ng) using Lipofectamine 3000 (Thermo Fisher Scientific) according to the manufacturer’s protocol. The pEGFP-C1 plasmid (Clontech, Tempe, AZ, USA) was used to assess the transfection efficiency. At 5 h post transfection, serially diluted test compounds at indicated concentration were added to the cells. Simultaneously, TCDD (10 nM) or indicated compounds with the highest concentration were added in the control wells. At 1 h post compound treatment, TCDD (10 nM) was added to all wells except the control wells. At 18 h post TCDD treatment, the medium was removed, and the cells washed with Dulbecco’s phosphate buffered saline (DPBS) and harvested using 1x Passive Lysis Buffer (Promega, Madison, WI, USA). The dual luciferase assay was carried out using a Dual-Luciferase Reporter Assay System (Promega, Madison, WI, USA) and an Orion L Microplate Luminometer (Titertek Berthold, Pforzheim, BW, Germany) as per manufacturer’s protocol. The relative light unit (RLU) values were normalized and expressed as toxic induced ratio (TIR). IC50 was determined using Prism 9.0 (GraphPad Software).

[4] = system: colorectal cancer cells; assay: Cell viability assay (CCK-8), colorectal cancer cells; format: cell-based; details: 24 h
Method: (§1) Chinese hamster ovary CHO cells, mouse fibroblast L929 cells, normal colon CCD18-Co cells, monkey kidney fibroblast COS-7 cells, colorectal cancer cells including HCT-116, RKO, SW480, SW620, CT26, and MC38 cells were purchased from ATCC (American Type Culture Collection). CHO, L929, Cos-7, and all cancer cells were maintained in RPMI 1640 or DMEM supplemented with 10% FBS (Gibco FBS; Thermo Fisher Scientific, Hanover Park, IL, USA) and 1% streptomycin/penicillin. CCD18-Co cells were cultured in high-glucose Dulbecco modified Eagle medium containing 10% FBS and 1% streptomycin/penicillin. All cells were grown in 5% CO2 at 37 °C. Mycoplasma testing was regularly performed every month using the BioMycoX Mycoplasma PCR Detection Kit (CellSafe, Yongin, Republic of Korea).
(§2) Cell viability was analyzed using a Cell Counting Kit-8 (Dojindo molecular technologies, Rockville, MD, USA). Cells were seeded in 96-well plates and treated with different concentrations of 7k. At the indicated time points, CCK-8 (10 μL/well) reagents were added to the cells, followed by further incubation at 37 °C for 90 min. The absorbance at 450 nm was measured using a plate reader (BioTek instruments, Winooski, VT, USA).

[5] = system: normal cells (CHO, L929, CCD-18Co); assay: Cell viability assay (CCK-8), normal cells; format: cell-based; details: 24 h, 7k: CHO, SR-1: CCD-18Co
Method: as §1, §2

[6] = system: MC38 tumor; assay: In vivo therapy, MC38 syngeneic model; parameters: species or system mice; details: MC38 model, comparison of 7k and 3′,4′-dimethoxyflavone, 10 mg/kg oral once a day, 18 days
Method: In vivo experiments were conducted using 6-week-old male immunocompetent BALB/c and C57BL/6 with 18–20 g body weight (Orient Bio Inc., Seungnam, Republic of Korea). All animal experimental procedures were maintained and used in accordance with the Guidelines for the Care and Use of Laboratory Animals of the Institute of Laboratory Animal Center, Daegu-Gyeongbuk Medical Innovation Foundation (K-MEDI hub). The animal studies were conducted after approval by the institutional reviewer board on the Ethics of Animal Experiments of the Daegu-Gyeongbuk Medical Innovation Foundation (approval number: KMEDI-24041103-01).
Study 1: Antitumor activity of 7k alone in mice with either CT26 syngeneic model or MC38 syngeneic model. Mice were subcutaneously challenged with 5 × 10^5 either MC38 or CT26 cells. […]
The 7k was dissolved in solution including 5% DMSO, 55% DW, and 40% PEG. Tumor size was measured with a caliper at the indicated time points, and tumor volume (mm^3) was calculated using the following formula, tumor volume (mm^3) = d2 × D/2, where d and D are the shortest and longest diameters in mm, respectively.

Row | AhR antagonistic activity in zebrafish, in words [2] | AhR Antagonist Activity at 100 nM [2] | Structure (SMILES) | also measured
1 | didn’t show AhR inhibition | - | CC(C)n1cc2nc(-c3cccc(N)c3)nc(NCCc3c[nH]c4ccccc34)c2n1 [Compound 7f] | 
2 | decreased activities | - | CC(C)n1cc2nc(-c3cccc(C(=O)OC(C)(C)C)c3)nc(NCCc3c[nH]c4ccccc34)c2n1 [Compound 7m] | 
3 | didn’t show AhR inhibition | - | CC(=O)c1cccc(-c2nc(NCCc3c[nH]c4ccccc34)c3nn(C(C)C)cc3n2)c1 [Compound 7d] | 
4 |  | + | CC(C)n1cc2nc(-c3ccccc3)nc(NCCc3c[nH]c4ccccc34)c2n1 [Compound 7a] | 
5 | didn’t show AhR inhibition | - | CC(C)n1cc2nc(-c3cccc(C(F)(F)F)c3)nc(NCCc3c[nH]c4ccccc34)c2n1 [Compound 7e] | 

More lines, now with the values behind:

Row | Structure (SMILES) | AhR antagonistic activity in zebrafish, in words [2] | AhR Antagonist Activity at 100 nM [2] | also measured
6 | CC(C)c1cnn2c(N[C@H]3CCc4[nH]c5ccccc5c4C3)nc(-c3cncc(F)c3)nc12 [IK-175] |  |  | IC50 [1]: < 0.5 µM
7 | Cc1ccccc1-c1cc2cc(NC(=O)c3ccnn3C)ccc2[nH]1 [PX-A24590] |  |  | IC50 [1]: 0.06 µM
8 | CCn1cc2nc(-c3cccc(C#N)c3)nc(NCCc3c[nH]c4ccccc34)c2n1 [Compound 7g] | lower activity than that of the isopropyl compound | +++ | 
9 | CC(C)n1cc2nc(-c3cccc(OC(F)(F)F)c3)nc(NCCc3c[nH]c4ccccc34)c2n1 [Compound 7l] | decreased activities | +++ | IC50 [3]: 0.301 µM
10 | C[C@@H](CO)NC(=O)c1cc(-c2ccc(Cl)cc2)nn(-c2cccc(F)c2)c1=O [BAY-128] |  |  | IC50 [1]: 0.0399 µM
11 | C[C@@H](CO)NC(=O)c1cc(-c2ccc(Cl)cc2)nn(-c2cnn(C)c2)c1=O [BAY 2416964] |  |  | IC50 [1]: 0.341 µM
12 | CC(C)n1cc2nc(-c3cccc(C#N)c3)nc(NCCc3c[nH]c4ccc(O)cc34)c2n1 [Compound 7i] | decreased AhR inhibition | - | 
13 | CC(C)n1cnc2c(NCCc3ccc(O)cc3)nc(-c3csc4ccccc34)nc21 [SR-1, StemRegenin 1, reference compound] |  | +++ | IC50 [3]: 0.198 µM; IC50 [1]: 0.127 µM; cell proliferation / viability of colorectal cancer cells [4]: reduced the viability of colorectal cancer cells; cell viability of normal cells [5]: little effect
14 | CC(C)n1cc2nc(-c3ccc(C#N)cc3)nc(NCCc3c[nH]c4ccccc34)c2n1 [Compound 7b] | better activity compared with those of the hit compound | ++ | 
15 | CC(C)n1cc2nc(-c3cccc(F)c3)nc(NCCc3c[nH]c4ccccc34)c2n1 [Compound 7j] |  | ++++ | IC50 [3]: 0.412 µM and 0.413 µM
16 | CC(C)n1cc2nc(-c3cccc(C#N)c3)nc(NCCc3c[nH]c4ccccc34)c2n1 [Compound 7c] |  | ++++ | IC50 [3]: 0.171 µM
17 | COc1ccc(-c2cc(=O)c3ccccc3o2)cc1OC [3′,4′-dimethoxyflavone, reference compound] |  |  | tumor growth inhibition (TGI) [6]: 37%
18 | CCCCn1cc2nc(-c3cccc(C#N)c3)nc(NCCc3c[nH]c4ccccc34)c2n1 [Compound 7h] | lower activity than that of the isopropyl compound | +++ | 
